According to patent publication US20040167229A1, “Method of lowering CRP and reducing systemic inflammation” (priority 2002, published 2004):
Marks after values point to notes of the source that are not given here.

How the values were obtained:
[1] = test system: proinflammatory cytokine induced CRP production by human hepatoma cell line PLC/PRF/5; test: CRP production by cytokine stimulated human hepatoma PLC/PRF/5 cells, CRP ELISA of cell media (Example 16); type: cell-based; details: 10 ng/ml IL-6, 1 ng/ml IL-1, 1 μM dexamethasone, 24 hours, FIG. 1
From the text: As noted above dialkyl ethers are useful for inhibiting proinflammatory cytokine induced CRP production. Studies have shown that the acute phase response can be recapitulated in cultured human hepatoma cells stimulated with the pro-inflammatory cytokines IL-6 and IL-1 in the presence of the corticosteroid Dexamethasone (Lozanski G, Berthier F, and Kushner I, 1997; Biochem J. 328:271-275). Using a similar hepatoma cell system we evaluated the effect 6,6′-oxybis(2,2-dimethylhexanoic acid) on CRP production by cytokine stimulated human hepatoma PLC/PRF/5 cells. […]
CRP protein concentrations were determined using a CRP ELISA Kit (Alpha Diagnostic International, Inc. San Antonio, Tex. USA (Cat. No.1000)). […] At the end of this incubation a 50 μl stop solution (as described by the manufacturer of the CRP kit) was added to each well and the plate was used to measure absorbance at 450 nm in a Spectra Max Plus, Molecular Devices spectrophotometer.
A CRP standard curve (in ng/ml) was generated by determining 450 nm absorbance values for different amounts of a standard CRP solution, provided by the vendor of the CRP kit, and correcting these values by subtracting the 450 nm absorbance of zero CRP control samples. CRP determinations in experimental samples was done as follows: 10 μl cell media samples in duplicates or triplicates were used to determine 450 nm absorbance. […]

[2] = test system: CRP; test: Randomized, double-blind, placebo-controlled dose-response study in hypercholesterolemic patients, 8-week treatment; CRP by high sensitivity assay (Example 17); type: in vivo, human; details: mean of 6 and 8 week CRP level, placebo 9.4% increase
Description: A randomized, double-blind, placebo-controlled, parallel group, dose-response, multicenter study was conducted in hypercholesterolemic patients. The study had three periods: (1) a lipid medication wash-out visit if needed; (2) a qualifying period; and (3) an 8-week double-blind treatment period. The data discussed below is from a portion of a larger study.
Patients with significant cardiac, renal (creatinine>2.0 mg/dL) or liver (alanine aminotransferase [ALT] or aspartate aminotransferase [AST]>1.5× upper limit of normal [ULN]) disease, unexplained CPK levels>3×ULN, body mass index [BMI]>38 kg/m^2, triglycerides [TG]>400 mg/dL, or age>70 years are excluded as are women who are of childbearing potential, pregnant or lactating. A subset of eligible patients was randomized to receive placebo, 300, 600 or 900 mg/day of 6,6′-oxybis(2,2-dimethylhexanoic acid) calcium salt. Each of these groups had 13 to 15 patients.
Blood samples were collected at week −2, week −1, randomization and every two weeks thereafter. CRP levels were determined using a high sensitivity assay as in example 15. The mean of the 6 and the 8 week CRP level was calculated for each patient. Values>10 were not included in the analysis as these values are indicative of acute inflammation. For each dosage group the median of the mean values was determined. These median numbers were compared with median CRP values at baseline. Percent change from baseline in CRP levels due to the administration of 300, 600, 900 mg/day of 6,6′-oxybis(2,2-dimethylhexanoic acid) calcium salt or placebo is shown in FIG. 2. At the 300, 600 and 900 mg doses the levels of CRP were reduced by 26% (p=0.16 vs placebo), 42% (p<0.01 vs placebo) and 35% (p<0.01 vs placebo) respectively, compared to a 9.4% increase in the placebo group.

[3] = test system: CRP; test: Randomized, double-blind, placebo-controlled dose-response study in patients with HDL-C <35 mg/dL, 12 weeks; CRP by high sensitivity immunonephelometry (Example 15); type: in vivo, human; details: for levels of CRP reduced by: 900 mg/day; for % change in CRP levels from base line: median percent change
Description: As noted above, the dialkyl ethers of this invention are useful for lowering plasma CRP levels. The ability of a dialkylether to lower plasma CRP levels was determined using in vivo studies routinely utilized by those skilled in the art.
A randomized, double-blind, placebo-controlled, parallel group, dose-response, multicenter study was conducted at 11 centers in the United States and one center in Canada. Eligible patients with HDL-C level<35 mg/dL (0.9 mmol/L) were selected following a 6-week, single-blind placebo, dietary lead in period conducted according to National Cholesterol Education Program (NCEP) Step 1 Diet. The NCEP Step 1 Diet guidelines are as follows:
Eligible patients with HDL-C level<35 mg/dL (0.9 mmol/L) were stratified according to whether mean serum TG level measured at both 2 and 4 weeks prior to randomization was <200 mg/dL (2.3 mmol/L) or ≧200 mg/dL (2.3 mmol/L). Within each TG stratum, patients were randomized to receive either 150, 300, 600, or 900 mg of 6,6′-oxybis(2,2-dimethylhexanoic acid) calcium saltor placebo daily (QD) for 12 weeks.
Eligible patients were women of non-childbearing potential (naturally postmenopausal or surgically sterilized) or men 18 to 80 years of age with a baseline HDL-C<35 mg/dL. Patients were excluded if they had creatine phosphokinase (CPK)>3 times the upper limit of normal (ULN), a body mass index>35 kg/m^2, uncontrolled hypertension defined as sitting diastolic blood pressure>95 mm Hg whether taking or not taking an acceptable antihypertensive medication, uncontrolled diabetes mellitus (HbA1C>10%), hepatic dysfunction including asparate aminotransferase (AST) or alanine aminotransferase (ALT)>2 times ULN, renal dysfunction as defined by blood urea nitrogen (BUN) or creatinine>2 times ULN or uncontrolled hypothyroidism (thyroid stimulating hormone>1.5 times ULN). Also excluded were those with a history of gall bladder disease or pancreatitis, a history of consuming>14 alcoholic drinks per week, or those with a known hypersensitivity to lipid-altering drugs. Patients who had myocardial infarction, severe or unstable angina pectoris, coronary artery bypass graft or any other cardiovascular event requiring hospitalization within the last 3 months were also excluded from the study. Patients were not permitted any other lipid-altering drugs during the course of the study and if on prestudy lipid-altering drug therapy, were required to undergo an additional 4-week washout period. Use of isotretinoin, insulin, warfarin, immunosuppressive agents and intermittent systemic steroids were also prohibited.
All blood samples were collected following a 12-hour fast and analyzed using methods well known to one of skill in the art; these methods are described briefly as follows. Serum concentrations of cholesterol and triglycerides were measured using an enzymatic, colorimetric assay on a Hitachi 747 analyzer. The HDL-C samples were obtained from the supernatant after precipitation of the non-HDL lipoproteins using heparin and manganese chloride. Concentrations of CRP were measured using immunonephelometry on a nephelometer (Dade Behring, Marburg, Germany). The high sensitivity assay was used to measure CRP (Dade Behring, Marburg, Germany).
Within each TG stratum, an ANCOVA model with the effects of baseline CRP value, treatment, and site was used to analyze the percent change from baseline at the last visit for CRP by producing least squares (LS) means and p-values. p-values were unadjusted for multiplicity.
The Shapiro-Wilk Test for Normality and visual analysis of the residuals was used to determine if the assumption of normality was reasonable. Since CRP levels in all patients were not normally distributed, median percent changes are presented and Conover's nonparametric ANCOVA was used to analyze the ranked data.

Row | Structure (SMILES) | doses that effectively inhibited proinflammatory cytokine induced CRP production [1] | levels of CRP reduced by (median percent change from baseline) ([2]; 300 mg/day, p=0.16 vs placebo) | levels of CRP reduced by (median percent change from baseline) ([2]; 600 mg/day, p<0.01 vs placebo) | levels of CRP reduced by (median percent change from baseline) ([2]; 900 mg/day, p<0.01 vs placebo) | reduction in the CRP level ([3]; 600 mg/day, <200 mg/dL TG stratum, not statistically significant) | CRP level reduced by ([3]; 600 mg/day, ≧200 mg/dL TG stratum, p<0.05 vs Placebo) | levels of CRP reduced by ([3]; <200 mg/dL TG stratum, p<0.05 vs Placebo) | levels of CRP reduced by ([3]; ≧200 mg/dL TG stratum, p<0.001 vs placebo) | % change in CRP levels from base line ([3]; patients TG < 200 mg/dL, 150 mg daily (QD) for 12 weeks) | % change in CRP levels from base line ([3]; patients TG < 200 mg/dL, 300 mg daily (QD) for 12 weeks) | % change in CRP levels from base line ([3]; patients TG < 200 mg/dL, 600 mg daily (QD) for 12 weeks, not statistically significant) | % change in CRP levels from base line ([3]; patients TG < 200 mg/dL, 900 mg daily (QD) for 12 weeks, p < 0.05 versus placebo) | % change in CRP levels from base line ([3]; patients TG ≧ 200 mg/dL, 150 mg daily (QD) for 12 weeks) | % change in CRP levels from base line ([3]; patients TG ≧ 200 mg/dL, 300 mg daily (QD) for 12 weeks) | % change in CRP levels from base line ([3]; patients TG ≧ 200 mg/dL, 600 mg daily (QD) for 12 weeks, p < 0.05 versus placebo) | % change in CRP levels from base line ([3]; patients TG ≧ 200 mg/dL, 900 mg daily (QD) for 12 weeks, p < 0.001 versus placebo)
1 | CC(C)(CCCCOCCCCC(C)(C)C(=O)O)C(=O)O [6,6′-oxybis(2,2-dimethylhexanoic acid), 6,6′-Oxybis-(2,2-dimethylhexanoic acid)] | ≥ 500 µM | – | – | – | – | – | – | – | – | – | – | – | – | – | – | –
2 | CC(C)(CCCCOCCCCC(C)(C)C(=O)[O-])C(=O)[O-].[Ca+2] [6,6′-oxybis(2,2-dimethylhexanoic acid), calcium salt] | – | 26% | 42% | 35% | 58% | 29% | 54% | 57% | −14.3% | −16.0% | −58.3% | −53.8* % | −22.2% | −16.2% | −28.6* % | −57.1** %
